Values of other authors in patent publication US20100112053A1, “GASTRIC RETENTION-TYPE SUSTAINED-RELEASE LEVODOPA PREPARATION” (Kissei Pharmaceutical Co., Ltd., priority 2007, published 2010).
Where two headings read alike, the source gives them in different places.

[1] = under a weakly acidic to basic condition

Solubility [1] | Solubility (under an acidic condition) | Compound
low | high | C[C@@](Cc1ccc(O)c(O)c1)(NN)C(=O)O [carbidopa]
low | high | N[C@@H](Cc1ccc(O)c(O)c1)C(=O)O [levodopa]
